{"source": "patent US20090178158A1", "about": "“RESISTANCE AGAINST PARASITIC WEEDS” (Plant Research International B.V., priority 2005, published 2009)", "key": {"[1]": {"tested_on": "Striga hermonthica seeds", "assay": "Germination bioassay: S. hermonthica seeds with root exudates of treated host seedlings (maize, cowpea, sorghum)", "assay_type": "in vivo", "conditions": "for maize root exudate-induced S. hermonthica germination: maize W22 grown 5 days with 100 μM fosmidomycin or 10 μM mevastatin, control 42±2%"}, "[2]": {"tested_on": "maize seedlings", "assay": "Phenotype of inhibitor-treated maize seedlings", "conditions": "10 μM mevastatin, 100 μM fosmidomycin, 25 μM fluridone, 200 μM amitrole (21° C.), 0.1-1 mM naproxen, 1 mM sodium tungstate, 0.02-0.2 mM abscisic acid"}, "[3]": {"tested_on": "carotenoid composition of shoots and roots of maize seedlings", "assay": "Carotenoid analysis (HPLC) of shoots and roots of treated maize seedlings", "assay_type": "in vivo"}, "[4]": {"tested_on": "Striga hermonthica seeds", "assay_type": "in vivo"}, "[5]": {"tested_on": "Orobanche crenata seeds", "assay_type": "in vivo", "conditions": "10 μM fluridone, versus control, FIG. 3F"}, "[6]": {"conditions": "Roots of 10-day old maize seedlings, 10 μM fluridone, 1 mM naproxen, 0.1 mM sodium tungstate, 0.02 mM abscisic acid, n.d. = below detection limit"}, "[7]": {"conditions": "Shoots of 10-day old maize seedlings, 10 μM fluridone, 1 mM naproxen, 0.1 mM sodium tungstate, 0.02 mM abscisic acid, n.d. = below detection limit"}, "[8]": {"conditions": "maize shoots, versus control (Table 1)"}}, "note": "“And” between values parts separate entries of the source, which are not always exact repeats. Equal values may be shown once. “Also recorded” adds a separate entry of the source.", "data": [{"molecule": "CC1=C[C@H](O/C=C2/C(=O)O[C@@H]3c4ccccc4C[C@H]23)OC1=O", "note": "[GR24]", "values": [{"measurement": "germination of S. hermonthica induced by GR24 alone", "setting": "[1]; suboptimal concentration of GR24 (0.01 mg.L^−1, FIG. 3E)", "value": "48±1", "unit": "%"}]}, {"molecule": "CC1=CC(=O)CC(C)(C)C1(O)/C=C/C(C)=C\\C(=O)O", "note": "(racemic) [abscisic acid, (±)-abscisic acid]", "values": [{"measurement": "morphology / appearance of treated seedlings", "setting": "[2]", "value": "slightly thicker and more brittle"}, {"measurement": "violaxanthin, carotenoid content", "setting": "[3]; [6]", "value": 0.07, "unit": "μg · g^−1 fwt"}, {"measurement": "β-carotene, carotenoid content", "setting": "[3]; [6]", "value": 0.01, "unit": "μg · g^−1 fwt"}, {"measurement": "lutein, carotenoid content", "setting": "[3]; [7]", "value": 73.01, "unit": "μg · g^−1 fwt"}, {"measurement": "neoxanthin, carotenoid content", "setting": "[3]; [7]", "value": 115.29, "unit": "μg · g^−1 fwt"}, {"measurement": "violaxanthin, carotenoid content", "setting": "[3]; [7]", "value": 50.84, "unit": "μg · g^−1 fwt"}, {"measurement": "β-carotene, carotenoid content", "setting": "[3]; [7]", "value": 47.35, "unit": "μg · g^−1 fwt"}, {"measurement": "β-carotene concentration lower than in control roots", "setting": "[3]; abscisic acid treated maize roots (0.02 mM, Table 1)", "value": "50% and ~65%"}, {"measurement": "carotenoid accumulation in shoots (β-carotene, violaxanthin, neoxanthin, lutein)", "setting": "[3]; [8]", "value": "decreased accumulation"}, {"measurement": "germination of S. hermonthica induced by root exudates of treated maize", "setting": "[1]; 0.02 or 0.2 mM abscisic acid, without/with 10 μM fluridone, FIG. 3D", "value": "very low germination; also recorded: strongly reduced"}]}, {"molecule": "Nc1nc[nH]n1", "note": "[amitrole, 3-amino-1,2,4-triazole]", "values": [{"measurement": "morphology / appearance of treated seedlings", "setting": "[2]", "value": "yellow-green phenotype"}, {"measurement": "germination of S. hermonthica induced by root exudates of treated maize", "setting": "[1]; maize Dent, 200 μM amitrole, grown at 21° C., versus control, FIG. 3C", "value": "lower germination"}]}, {"molecule": "O=CN(O)CCCP(=O)(O)O", "note": "[fosmidomycin]", "values": [{"measurement": "morphology / appearance of treated seedlings", "setting": "[2]", "value": "slightly pale-yellow leaves"}, {"measurement": "maize root exudate-induced S. hermonthica germination", "setting": "[1]; FIG. 3A", "value": "37±2", "unit": "%"}]}, {"molecule": "[Na+].[Na+].[O]=[W](=[O])([O-])[O-]", "note": "[sodium tungstate]", "values": [{"measurement": "violaxanthin, carotenoid content", "setting": "[3]; [6]", "value": 0.22, "unit": "μg · g^−1 fwt"}, {"measurement": "β-carotene, carotenoid content", "setting": "[3]; [6]", "value": 0.03, "unit": "μg · g^−1 fwt"}, {"measurement": "lutein, carotenoid content", "setting": "[3]; [7]", "value": 83.94, "unit": "μg · g^−1 fwt"}, {"measurement": "neoxanthin, carotenoid content", "setting": "[3]; [7]", "value": 147.58, "unit": "μg · g^−1 fwt"}, {"measurement": "violaxanthin, carotenoid content", "setting": "[3]; [7]", "value": 72.19, "unit": "μg · g^−1 fwt"}, {"measurement": "β-carotene, carotenoid content", "setting": "[3]; [7]", "value": 64.29, "unit": "μg · g^−1 fwt"}, {"measurement": "concentration of violaxanthin higher than in control roots", "setting": "[3]; maize roots, 1 mM naproxen, 0.1 mM sodium tungstate (Table 1)", "value": 2, "unit": "fold"}, {"measurement": "carotenoid accumulation in shoots (β-carotene, violaxanthin, neoxanthin, lutein)", "setting": "[3]; [8]", "value": "did not affect carotenoid accumulation"}, {"measurement": "effect on root exudate induced S. hermonthica germination", "setting": "[1]; maize Dent, 0.1 mM and 1 mM sodium tungstate, FIG. 3D", "value": "did not affect germination; also recorded: did not have an effect"}]}, {"molecule": "CC[C@H](C)C(=O)O[C@H]1CCC=C2C=C[C@H](C)[C@H](CC[C@@H]3C[C@@H](O)CC(=O)O3)[C@H]21", "note": "[mevastatin]", "values": [{"measurement": "maize root exudate-induced S. hermonthica germination", "setting": "[1]; FIG. 3A", "value": "33±3", "unit": "%"}]}, {"molecule": "COc1ccc2cc([C@H](C)C(=O)[O-])ccc2c1.[Na+]", "note": "[naproxen, (S)-6-methoxy-α-methyl-2-naphthaleneacetic acid sodium salt]", "values": [{"measurement": "carotenoid accumulation in shoots (β-carotene, violaxanthin, neoxanthin, lutein)", "setting": "[3]; in vivo", "value": "decreased accumulation"}, {"measurement": "concentration of violaxanthin higher than in control roots", "setting": "[3]; in vivo", "value": "about 3 fold"}, {"measurement": "concentration of β-carotene higher than in control roots", "setting": "[3]; in vivo", "value": 2, "unit": "fold"}, {"measurement": "lutein, carotenoid content", "setting": "[3]; in vivo", "value": 68.58, "unit": "μg · g^−1 fwt"}, {"measurement": "neoxanthin, carotenoid content", "setting": "[3]; in vivo", "value": 111.81, "unit": "μg · g^−1 fwt"}, {"measurement": "germination of S. hermonthica seeds", "setting": "[1]; in vivo, sodium salt", "value": "20±1% and 15±2%"}]}, {"molecule": "fluridone", "values": [{"measurement": "effect on the attachment phase of Striga", "setting": "[4]; control experiments with GR24 inducing full germination (data not shown)", "value": "not affecting the attachment phase"}, {"measurement": "number of germinated/attached seeds/tubercles of Striga", "setting": "[4]; rice, fluridone sprayed to the leaves on 3 consecutive days, even at 0.001 and 0.01 μM, FIG. 7B", "value": "strong, significant reduction"}, {"measurement": "number of germinated/attached Striga seeds", "setting": "[4]; rice, irrigation once with 100 mL of 0.1 μM fluridone, scored after 6 weeks, FIG. 7A", "value": "significantly reduced"}, {"measurement": "phytoene in treated roots", "setting": "[3]; fluridone treated maize roots", "value": "phytoene accumulated"}, {"measurement": "phytoene in treated shoots", "setting": "[3]; shoot of fluridone treated maize plants", "value": "phytoene accumulated"}, {"measurement": "germination of S. hermonthica induced by root exudates of treated maize", "setting": "[1]; 10 μM fluridone, dim light, FIG. 3B", "value": "negligible"}, {"measurement": "germination of S. hermonthica induced by root exudates of treated maize", "setting": "[1]; 10 μM fluridone, normal light, control 13±1%, FIG. 3B", "value": "virtually no germination"}, {"measurement": "germination of S. hermonthica induced by fluridone-treated cowpea root exudates with GR24", "setting": "[1]; 10 μM fluridone-treated cowpea exudate plus 0.01 mg.L^−1 GR24, FIG. 3E", "value": "53±3", "unit": "%"}, {"measurement": "germination of S. hermonthica seeds induced by cowpea root exudates", "setting": "[1]; cowpea watered with 10 μM fluridone for 5 days, non-treated 49±2%, FIG. 3E", "value": "11±3", "unit": "%"}, {"measurement": "germination induced by root exudates lower than for control maize", "setting": "[1]; maize W22, 25 μM fluridone, 5 days, FIG. 3A", "value": "about 80%"}, {"measurement": "sorghum root exudate induced S. hermonthica germination", "setting": "[1]; sorghum, 4 μM fluridone, FIG. 3G", "value": "completely blocked"}, {"measurement": "germination of O. crenata seeds with fluridone-treated cowpea root exudate", "setting": "[5]", "value": "lower than that induced by the control; also recorded: decreased this germination by about the same percentage as for S. hermonthica"}]}]}
